Experiments:
Format in all cases: functional, cell-based
MGC-803 = assay: Antiproliferative activity against human MGC803 cells after 48 hrs by MTT assay; details: MGC-803, 48 h
MCF7 = assay: Antiproliferative activity against human MCF7 cells after 48 hrs by MTT assay; details: MCF7, 48 h
[1] = Antiproliferative activity against human EC9706 cells after 48 hrs by MTT assay; details: EC9706, 48 h

Compound	IC50 (MGC-803) [µM]	IC50 (MCF7) [µM]	IC50 [1] [µM]
CCCCCCCCn1cc(COC[C@@H]2OC[C@H](N)[C@@H]2O)nn1	70.4	28.1	44.3
CCCCCCCCn1cc(COC[C@@H]2OC[C@H](N)[C@H]2O)nn1	> 128	> 128	> 128
O=c1[nH]cc(F)c(=O)[nH]1 [FLUOROURACIL]	11.3	3.52	9.45
CCCCCCCCCCCCCCn1cc(COC[C@@H]2OC[C@H](N)[C@@H]2O)nn1	8.21	1.85	7.83
CCCCCCCCCCCCCCn1cc(COC[C@@H]2OC[C@H](N)[C@H]2O)nn1	8.79	2.45	6.68
CCCCCCCn1cc(COC[C@@H]2OC[C@H](N)[C@@H]2O)nn1	> 128	> 128	> 128
CCCCCCCn1cc(COC[C@@H]2OC[C@H](N)[C@H]2O)nn1	> 128	> 128	> 128
CCCCCCCCCn1cc(COC[C@@H]2OC[C@H](N)[C@@H]2O)nn1	13.8	12.4	20.1
CCCCCCCCCCCCCCCCCCn1cc(COC[C@@H]2OC[C@H](N)[C@@H]2O)nn1	15.4	7.58	17.8
